Results from PubChem BioAssay (NCI).
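Dose response: 5 concentrations. Exposure: 48 h. Format: 96-well plates. Endpoint: linear interpolation; highest concentration if not reached. GI50 marks 50% less growth. Definition used: TGI = concentration required for complete inhibition of growth.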

Columns and labels:
Assay in all cases: NCI anticancer screen, dose series, 48 h
RPMI-8226 leukemia = tested on: RPMI-8226 leukemia
TK-10 renal = tested on: TK-10 renal
MDA-MB-231 breast = tested on: MDA-MB-231 breast
ACHN renal = tested on: ACHN renal
MALME-3M melanoma = tested on: MALME-3M melanoma
U251 CNS = tested on: U251 CNS
SNB-75 CNS = tested on: SNB-75 CNS
HL-60(TB) leukemia = tested on: HL-60(TB) leukemia
NCI-H460 lung = tested on: NCI-H460 lung
UACC-62 melanoma = tested on: UACC-62 melanoma
SF-268 CNS = tested on: SF-268 CNS
KM12 colon = tested on: KM12 colon
LOX IMVI melanoma = tested on: LOX IMVI melanoma
SF-539 CNS = tested on: SF-539 CNS
HCT-116 colon = tested on: HCT-116 colon
SNB-19 CNS = tested on: SNB-19 CNS
SK-MEL-2 melanoma = tested on: SK-MEL-2 melanoma
NCI/ADR-RES ovarian = tested on: NCI/ADR-RES ovarian
BT-549 breast = tested on: BT-549 breast
SW-620 colon = tested on: SW-620 colon
HS 578T breast = tested on: HS 578T breast
MDA-MB-435 = tested on: MDA-MB-435
HOP-62 NSCLC = tested on: HOP-62 NSCLC
SK-MEL-28 melanoma = tested on: SK-MEL-28 melanoma
786-0 renal = tested on: 786-0 renal
A498 renal = tested on: A498 renal
HCC-2998 colon = tested on: HCC-2998 colon
MOLT-4 leukemia = tested on: MOLT-4 leukemia
K-562 leukemia = tested on: K-562 leukemia
SR leukemia = tested on: SR leukemia
OVCAR-5 ovarian = tested on: OVCAR-5 ovarian
RXF 393 renal = tested on: RXF 393 renal
HOP-92 NSCLC = tested on: HOP-92 NSCLC
OVCAR-4 ovarian = tested on: OVCAR-4 ovarian
A549 NSCLC = tested on: A549 NSCLC
CCRF-CEM leukemia = tested on: CCRF-CEM leukemia
CAKI-1 renal = tested on: CAKI-1 renal
OVCAR-8 ovarian = tested on: OVCAR-8 ovarian
HT29 colon = tested on: HT29 colon
UO-31 renal = tested on: UO-31 renal
MCF7 breast = tested on: MCF7 breast
M14 melanoma = tested on: M14 melanoma
SK-OV-3 ovarian = tested on: SK-OV-3 ovarian
HCT-15 colon = tested on: HCT-15 colon
SN12C renal = tested on: SN12C renal
NCI-H23 lung = tested on: NCI-H23 lung
PC-3 prostate = tested on: PC-3 prostate
DU-145 prostate = tested on: DU-145 prostate
SF-295 CNS = tested on: SF-295 CNS
T-47D breast = tested on: T-47D breast
IGROV1 ovarian = tested on: IGROV1 ovarian
COLO 205 colon = tested on: COLO 205 colon
NCI-H522 lung = tested on: NCI-H522 lung
EKVX NSCLC = tested on: EKVX NSCLC
UACC-257 melanoma = tested on: UACC-257 melanoma
NCI-H226 lung = tested on: NCI-H226 lung
SK-MEL-5 melanoma = tested on: SK-MEL-5 melanoma

Structure (SMILES): CCCC(=O)NC(c1cccnc1)c1ccc2c(C)ccnc2c1O (centres undefined)
- GI50 (RPMI-8226 leukemia): 1.88 µM
- TGI (RPMI-8226 leukemia): > 100 µM
- GI50 (TK-10 renal): 3.13 µM
- TGI (TK-10 renal): > 100 µM
- GI50 (MDA-MB-231 breast): 2.23 µM
- TGI (MDA-MB-231 breast): > 100 µM
- GI50 (ACHN renal): 0.651 µM
- TGI (ACHN renal): > 100 µM
- GI50 (MALME-3M melanoma): 2.18 µM
- TGI (MALME-3M melanoma): > 100 µM
- GI50 (U251 CNS): 1.6 µM
- TGI (U251 CNS): > 100 µM
- GI50 (SNB-75 CNS): 3.13 µM
- TGI (SNB-75 CNS): > 100 µM
- GI50 (HL-60(TB) leukemia): 0.591 µM
- TGI (HL-60(TB) leukemia): 5.85 µM
- GI50 (NCI-H460 lung): 0.576 µM
- TGI (NCI-H460 lung): > 100 µM
- GI50 (UACC-62 melanoma): 2.11 µM
- TGI (UACC-62 melanoma): 20.4 µM
- GI50 (SF-268 CNS): 1.81 µM
- TGI (SF-268 CNS): > 100 µM
- GI50 (KM12 colon): 2.28 µM
- TGI (KM12 colon): > 100 µM
- GI50 (LOX IMVI melanoma): 0.697 µM
- TGI (LOX IMVI melanoma): 11.7 µM
- GI50 (SF-539 CNS): 1.74 µM
- TGI (SF-539 CNS): > 100 µM
- GI50 (HCT-116 colon): 0.538 µM
- TGI (HCT-116 colon): > 100 µM
- GI50 (SNB-19 CNS): 3.42 µM
- TGI (SNB-19 CNS): > 100 µM
- GI50 (SK-MEL-2 melanoma): 7.09 µM
- TGI (SK-MEL-2 melanoma): > 100 µM
- GI50 (NCI/ADR-RES ovarian): 0.442 µM
- TGI (NCI/ADR-RES ovarian): 77.5 µM
- GI50 (BT-549 breast): 3.93 µM
- TGI (BT-549 breast): > 100 µM
- GI50 (SW-620 colon): 1.94 µM
- TGI (SW-620 colon): > 100 µM
- GI50 (HS 578T breast): 8.72 µM
- TGI (HS 578T breast): > 100 µM
- GI50 (MDA-MB-435): 2.89 µM
- TGI (MDA-MB-435): > 100 µM
- GI50 (HOP-62 NSCLC): 1.5 µM
- TGI (HOP-62 NSCLC): > 100 µM
- GI50 (SK-MEL-28 melanoma): 2.3 µM
- TGI (SK-MEL-28 melanoma): > 100 µM
- GI50 (786-0 renal): 2.08 µM
- TGI (786-0 renal): > 100 µM
- GI50 (A498 renal): 2.36 µM
- TGI (A498 renal): 16.8 µM
- GI50 (HCC-2998 colon): 2.68 µM
- TGI (HCC-2998 colon): > 100 µM
- GI50 (MOLT-4 leukemia): 0.549 µM
- TGI (MOLT-4 leukemia): > 100 µM
- GI50 (K-562 leukemia): 0.851 µM
- TGI (K-562 leukemia): > 100 µM
- GI50 (SR leukemia): 0.472 µM
- TGI (SR leukemia): > 100 µM
- GI50 (OVCAR-5 ovarian): 2.87 µM
- TGI (OVCAR-5 ovarian): > 100 µM
- GI50 (RXF 393 renal): 2.79 µM
- TGI (RXF 393 renal): > 100 µM
- GI50 (HOP-92 NSCLC): 6.1 µM
- TGI (HOP-92 NSCLC): > 100 µM
- GI50 (OVCAR-4 ovarian): 0.995 µM
- TGI (OVCAR-4 ovarian): > 100 µM
- GI50 (A549 NSCLC): 2.15 µM
- TGI (A549 NSCLC): > 100 µM
- GI50 (CCRF-CEM leukemia): 0.568 µM
- TGI (CCRF-CEM leukemia): > 100 µM
- GI50 (CAKI-1 renal): 1.03 µM
- TGI (CAKI-1 renal): > 100 µM
- GI50 (OVCAR-8 ovarian): 1.86 µM
- TGI (OVCAR-8 ovarian): > 100 µM
- GI50 (HT29 colon): 2.21 µM
- TGI (HT29 colon): > 100 µM
- GI50 (UO-31 renal): 0.548 µM
- TGI (UO-31 renal): 41.3 µM
- GI50 (MCF7 breast): 1.91 µM
- TGI (MCF7 breast): > 100 µM
- GI50 (M14 melanoma): 1.16 µM
- TGI (M14 melanoma): > 100 µM
- GI50 (SK-OV-3 ovarian): 2.1 µM
- TGI (SK-OV-3 ovarian): > 100 µM
- GI50 (HCT-15 colon): 0.539 µM
- TGI (HCT-15 colon): > 100 µM
- GI50 (SN12C renal): 2.37 µM
- TGI (SN12C renal): > 100 µM
- GI50 (NCI-H23 lung): 2.54 µM
- TGI (NCI-H23 lung): > 100 µM
- GI50 (PC-3 prostate): 2.54 µM
- TGI (PC-3 prostate): > 100 µM
- GI50 (DU-145 prostate): 1.7 µM
- TGI (DU-145 prostate): > 100 µM
- GI50 (SF-295 CNS): 0.93 µM
- TGI (SF-295 CNS): > 100 µM
- GI50 (T-47D breast): 1.29 µM
- TGI (T-47D breast): > 100 µM
- GI50 (IGROV1 ovarian): 1.87 µM
- TGI (IGROV1 ovarian): > 100 µM
- GI50 (COLO 205 colon): 1.27 µM
- TGI (COLO 205 colon): > 100 µM
- GI50 (NCI-H522 lung): 2.17 µM
- TGI (NCI-H522 lung): > 100 µM
- GI50 (EKVX NSCLC): 0.892 µM
- TGI (EKVX NSCLC): 20.2 µM
- GI50 (UACC-257 melanoma): 2.46 µM
- TGI (UACC-257 melanoma): > 100 µM
- GI50 (NCI-H226 lung): 2.75 µM
- TGI (NCI-H226 lung): > 100 µM
- GI50 (SK-MEL-5 melanoma): 1.69 µM
- TGI (SK-MEL-5 melanoma): 3.65 µM
